Laboratory results: US20050014766A1, “Use of n-(indolecarbonyl-)piperazine derivatives” (priority 2002, published 2005)

Experiments:
[1] = Feeding experiment on Beagle hounds (body weight, feed consumption, behaviour and general state); format: in vivo
[2] = as above; format: in vivo; remark: listed apart in the source
Description: The efficacy of the compounds of the formula I for the treatment of obesity can be determined in vivo as follows (cf. Example B): A certain dose or varying doses of the test compound is administered to one group of experimental animals over an extended period. The amount of feed consumed and the body weight of the experimental animals are recorded regularly. At the same time, the behaviour and general state of the animals are monitored in a manner known per se. Conclusions can be drawn on the suitability of the test compound for the treatment of obesity from the decrease in the body weight and the take-up of feed in the experimental period with an otherwise unchanged general state and in the absence of changes in behaviour. The test substance in the form of hard gelatine capsules produced as described in Example B7 is administered once daily over a period of 11 days to a group of Beagle hounds about 8 months old which had been dewormed in advance. The amount of feed consumed is determined daily by re-weighing the unconsumed feed, the body weight before (day 0), during (day 5) and after (day 12) the feeding experiment. At the same time, the behaviour and general state of the animals are monitored over the entire experimental period. Drinking water in unlimited amount is available to the dogs. […] The behaviour and general state of the dogs are not impaired in the experimental period by the administration of the test substance.

[3] = Beagle hounds, once daily oral capsules over 11 days

SMILES: Cl.N#Cc1c[nH]c2c(C(=O)N3CCN(CCc4ccc(F)cc4)CC3)cccc12 [(3-cyano-1H-indol-7-yl)[4-(4-fluoro-phenethyl)piperazin-1-yl]methanone, hydrochloride]
- behaviour and general state of the dogs ([1]; Beagle hounds, experimental period, doses up to 100 mg/kg): not impaired
- body weight change (in words) [1, 3]: significant reduction in body weight
- consumption of feed during the experiment (in words) [1, 3]: increasingly restrict the consumption of feed
- body weight ([1]; Dog 1201 (male), day 0, before dosing): 6.8 kg
- feed consumption ([1]; Dog 1201 (male), day 1, no dose yet (dosing starts day 5)): 440 g
- feed consumption ([1]; Dog 1201 (male), day 2, no dose yet (dosing starts day 5)): 260 g
- feed consumption ([1]; Dog 1201 (male), day 3, no dose yet (dosing starts day 5)): 400 g
- feed consumption ([1]; Dog 1201 (male), day 4, no dose yet (dosing starts day 5)): 230 g
- feed consumption ([1]; Dog 1201 (male), day 5, dose 50 mg/kg): 340 g
- body weight ([1]; Dog 1201 (male), day 5, first day of 50 mg/kg): 7.1 kg
- feed consumption ([1]; Dog 1201 (male), day 6, dose 50 mg/kg): 220 g
- feed consumption ([1]; Dog 1201 (male), day 7, dose 50 mg/kg): 160 g
- feed consumption ([1]; Dog 1201 (male), day 8, dose 50 mg/kg): 170 g
- feed consumption ([1]; Dog 1201 (male), day 9, dose 50 mg/kg): 130 g
- feed consumption ([1]; Dog 1201 (male), day 10, dose 50 mg/kg): 80 g
- feed consumption ([1]; Dog 1201 (male), day 11, dose 50 mg/kg): 40 g
- body weight ([1]; Dog 1201 (male), day 12, after 50 mg/kg days 5-11): 6.3 kg
- body weight ([1]; Dog 2164 (female), day 0, before dosing): 6.1 kg
- feed consumption ([1]; Dog 2164 (female), day 1, no dose yet (dosing starts day 5)): 310 g
- feed consumption ([1]; Dog 2164 (female), day 2, no dose yet (dosing starts day 5)): 270 g
- feed consumption ([1]; Dog 2164 (female), day 3, no dose yet (dosing starts day 5)): 280 g
- feed consumption ([1]; Dog 2164 (female), day 4, no dose yet (dosing starts day 5)): 280 g
- feed consumption ([1]; Dog 2164 (female), day 5, dose 50 mg/kg): 340 g
- body weight ([1]; Dog 2164 (female), day 5, first day of 50 mg/kg): 5.9 kg
- feed consumption ([1]; Dog 2164 (female), day 6, dose 50 mg/kg): 180 g
- feed consumption ([1]; Dog 2164 (female), day 7, dose 50 mg/kg): 260 g
- feed consumption ([1]; Dog 2164 (female), day 8, dose 50 mg/kg): 150 g
- feed consumption ([1]; Dog 2164 (female), day 9, dose 50 mg/kg): 140 g
- feed consumption ([1]; Dog 2164 (female), day 10, dose 50 mg/kg): 130 g
- feed consumption ([1]; Dog 2164 (female), day 11, dose 50 mg/kg): 60 g
- body weight ([1]; Dog 2164 (female), day 12, after 50 mg/kg days 5-11): 5.5 kg
- feed consumption ([1]; Dog 8910 (male), day 1, dose 3 mg/kg): 380 g
- feed consumption ([1]; Dog 8910 (male), day 3, dose 30 mg/kg): 370 g
- feed consumption ([1]; Dog 8910 (male), day 4, dose 100 mg/kg): 320 g
- feed consumption ([1]; Dog 8910 (male), day 5, dose 100 mg/kg): 250 g
- feed consumption ([1]; Dog 8910 (male), day 7, dose 100 mg/kg): 60 g
- feed consumption ([1]; Dog 8910 (male), day 8, dose 100 mg/kg): 60 g
- feed consumption ([1]; Dog 8910 (male), day 9, dose 100 mg/kg): 40 g
- feed consumption ([1]; Dog 8910 (male), day 11, dose 100 mg/kg): 90 g
- body weight ([1]; Dog 8936 (female), day 0, before dosing): 7.5 kg
- feed consumption ([1]; Dog 8936 (female), day 1, dose 3 mg/kg): 380 g
- feed consumption ([1]; Dog 8936 (female), day 2, dose 10 mg/kg): 380 g
- feed consumption ([1]; Dog 8936 (female), day 3, dose 30 mg/kg): 360 g
- feed consumption ([1]; Dog 8936 (female), day 4, dose 100 mg/kg): 220 g
- feed consumption ([1]; Dog 8936 (female), day 5, dose 100 mg/kg): 200 g
- body weight ([1]; Dog 8936 (female), day 5, once daily capsules 3, 10, 30 mg/kg days 1-3, 100 mg/kg from day 4): 7.3 kg
- feed consumption ([1]; Dog 8936 (female), day 7, dose 100 mg/kg): 80 g
- feed consumption ([1]; Dog 8936 (female), day 8, dose 100 mg/kg): 30 g
- feed consumption ([1]; Dog 8936 (female), day 9, dose 100 mg/kg): 30 g
- feed consumption ([1]; Dog 8936 (female), day 10, dose 100 mg/kg): 70 g
- feed consumption ([1]; Dog 8936 (female), day 11, dose 100 mg/kg): 10 g
- body weight ([1]; Dog 8936 (female), day 12, after 3, 10, 30 mg/kg days 1-3 and 100 mg/kg days 4-11): 6.2 kg
- body weight ([2]; Dog 8910 (male), day 0, before dosing): 8.6 kg
- feed consumption ([2]; Dog 8910 (male), day 2, dose 10 mg/kg): 320 g
- body weight ([2]; Dog 8910 (male), day 5, once daily capsules 3, 10, 30 mg/kg days 1-3, 100 mg/kg from day 4): 8.6 kg
- feed consumption ([2]; Dog 8910 (male), day 6, dose 100 mg/kg): 240 g
- feed consumption ([2]; Dog 8910 (male), day 10, dose 100 mg/kg): 20 g
- body weight ([2]; Dog 8910 (male), day 12, after 3, 10, 30 mg/kg days 1-3 and 100 mg/kg days 4-11): 7.8 kg
- feed consumption ([2]; Dog 8936 (female), day 6, dose 100 mg/kg): 140 g
